From US20060040884A1, “Antisense oligonucleotides directed to genes regulated by trapoxin-induced HDAC inhibition” (priority 2001, published 2006)
Strand notation (5' to 3'): a small letter for the sugar, then the base; units joined by * are phosphorothioate-linked, units joined directly phosphodiester-linked; [ ] holds rarer units or linkages, { } end groups; capitals alone tell only the bases. e = 2'-O-(2-methoxyethyl) (MOE); [5mC] = 5-methylcytosine; d = 2'-deoxy (DNA)

How the values were obtained:
RhoB = RhoB expression in H1299 cells transfected with antisense oligonucleotides (Western blot); assay type: cell-based, human; conditions: 400 nM oligonucleotide with LIPOFECTIN, harvested 72 h after first transfection
Description: (§1) H1299 cells are transfected with HDAC1 antisense oligonucleotides NAS 6887, HDAC1 mismatch oligonucleotide NAS 7618, luciferase antisense oligonucleotide NAS 5596, or mock transfected. The following are the sequences of the modified oligonucleotides:
modified such that “s” stands for phosphorothioate, upper case refers to 2′-H, lower case refers to 2′-O-methoxyethyl and “c” refers to 2′-methoxyethyl 5-methylcytidine. Transfection is performed using LIPOFECTIN (Life Technologies) as a carrier according to the manufacturer's instruction. The transfection mixture is prepared in OPTI-MEM (Life Technologies) containing 6 μl LIPOFECTIN per 400 nM oligonucleotide. Transfection is carried out for 4 h, and is repeated twice on two consecutive days. Cells are harvested 72 h after the first transfection. RNA and proteins are isolated using Trizol reagent (Life Technologies) according to the manufacturer's instruction. Traces of DNA are removed from RNA samples using DNA-free (Ambion, Austin, Tex.) according to the manufacturer's protocol. RNA concentration is measured on CytoFluor Multi-well plate reader (PerSeptive Biosystems, Framingham, Mass.) using RIBO GREEN RNA Quantification kit (Molecular Probes, Eugene, Oreg.). Real Time RT-PCR
To determine the effect of specific HDAC1 blockade on RhoB expression, antisense oligonucleotides against HDAC1 were used. Potent antisense oligonucleotides against HDAC1 as well as oligonucleotides with mismatched nucleotides were synthesized and transfected into H1299 cells as specifically disclosed herein and as described in Examples 6-9. […] RNA and protein were isolated from H1299 cells transfected with the HDAC1 antisense oligonucleotides (NAS 6887), the corresponding mismatch (NAS 7618) and the unrelated luciferase control oligonucleotide (NAS 5596), and were analysed by real time RT-PCR and Western blot for HDAC1 and RhoB expression level. […] In contrast, no effects on RhoB expression were found in cells transfected with the NAS 7618 and NAS 5596 oligonucleotides.

HDAC1 = HDAC1 expression in H1299 cells transfected with antisense oligonucleotides (real time RT-PCR, Western blot); assay type: cell-based, human
Description: as §1
modified such that “s” stands for phosphorothioate, upper case refers to 2′-H, lower case refers to 2′-O-methoxyethyl and “c” refers to 2′-methoxyethyl 5-methylcytidine. Transfection is performed using LIPOFECTIN (Life Technologies) as a carrier according to the manufacturer's instruction. The transfection mixture is prepared in OPTI-MEM (Life Technologies) containing 6 μl LIPOFECTIN per 400 nM oligonucleotide. Transfection is carried out for 4 h, and is repeated twice on two consecutive days. […] RNA concentration is measured on CytoFluor Multi-well plate reader (PerSeptive Biosystems, Framingham, Mass.) using RIBO GREEN RNA Quantification kit (Molecular Probes, Eugene, Oreg.). […]
To determine the effect of specific HDAC1 blockade on RhoB expression, antisense oligonucleotides against HDAC1 were used. […] RNA and protein were isolated from H1299 cells transfected with the HDAC1 antisense oligonucleotides (NAS 6887), the corresponding mismatch (NAS 7618) and the unrelated luciferase control oligonucleotide (NAS 5596), and were analysed by real time RT-PCR and Western blot for HDAC1 and RhoB expression level. […]

| Substance | RhoB expression (protein level) (RhoB) | Expression of HDAC1 (real time RT-PCR and Western blot) (HDAC1; H1299 cells, 400 nM oligonucleotide with LIPOFECTIN, harvested 72 h after first transfection) | Inhibition of HDAC1 mRNA level (HDAC1; transfected H1299 cells) |
| --- | --- | --- | --- |
| NAS 5596: luciferase antisense control oligonucleotide, SEQ ID NO 14: cct taCs CsTsGs CsTsAs Gsct ggc (antisense CCTTACCTGCTAGCTGGC; phosphorothioate modifications, chemistry not fully specified) | no effects | – | – |
| NAS 6887: HDAC1 antisense oligonucleotide, SEQ ID NO 12: gct gtAs CsTsCs CsGsAs Csat gtt (antisense eGe[5mC]eTeGeTdA*dC*dT*dC*dC*dG*dA*dC*eAeTeGeTeT) | significantly induced | efficiently blocked | very potent inhibition |
| NAS 7618: HDAC1 mismatch oligonucleotide, SEQ ID NO 13: gct ttAs CsGsCs CsTsAs Csag gtt (antisense GCTTTACGCCTACAGGTT; phosphorothioate modifications, chemistry not fully specified) | no effects | – | – |
